Measured values published in ChEMBL document CHEMBL5126655, “Koshidacins A and B, Antiplasmodial Cyclic Tetrapeptides from the Okinawan Fungus Pochonia boninensis FKR-0564” (J Nat Prod, 2022).

Legend:
[1] = tested on: Plasmodium falciparum; assay: Antiplasmodial activity against Plasmodium falciparum FCR3 assessed as reduction in parasite growth incubated for 72 hr by LDH assay; assay type: functional, organism-based; settings: FCR3, 72 h
[2] = tested on: Plasmodium berghei; assay: Antiplasmodial activity against plasmodium berghei N strain infected in ICR(CD1) mouse assessed as inhibition of parasitemia at 30 mg/kg, ip administered for 3 days relative to control; assay type: functional; settings: 72 h, time 3 day
[3] = Selectivity index, ratio of CC50 for human MRC5 cells to IC50 for plasmodium falciparum FCR3; assay type: toxicity; settings: read-out: Ratio CC50/IC50
[4] = tested on: Plasmodium falciparum; assay: Antiplasmodial activity against Plasmodium falciparum K1 assessed as reduction in parasite growth incubated for 72 hr by LDH assay; assay type: functional, organism-based; settings: K1, 72 h
[5] = Selectivity index, ratio of CC50 for human MRC5 cells to IC50 for plasmodium falciparum K1; assay type: toxicity; settings: read-out: Ratio CC50/IC50
[6] = Cytotoxicity against human MRC5 cells assessed as reduction in cell viability after 24 hrs by MTT assay; assay type: toxicity, cell-based
[7] = Inhibition of HDAC in Plasmodium falciparum infected in human erythrocytes incubated for 2 hr in presence of sodium [14C]acetate by radiometry assay; assay type: cell-based; settings: Erythrocyte

Question: For `CC1(C)NC(=O)[C@H](CCCCCC(=O)[C@@H](O)CO)NC(=O)[C@H]2CCCN2C(=O)[C@H](Cc2ccccc2)NC1=O`, which IC50 [1] is on record?
Answer: 890 nM

Question: And the inhibition in vivo at 30 mg/kg [2]?
Answer: 41%

Question: What about the selectivity ratio [3] of the same molecule?
Answer: 16.3

Question: What about the IC50 [4] of the same molecule?
Answer: 830 nM

Question: What about the selectivity ratio [5] of the same molecule?
Answer: 18.4

Question: And the CC50 at 24 h [6]?
Answer: 14700 nM

Question: Which IC50 [1] does the source give for `CC1(C)NC(=O)[C@H](CCCCC[C@@H](O)[C@@H](O)CO)NC(=O)[C@H]2CCCN2C(=O)[C@H](Cc2ccccc2)NC1=O` here?
Answer: 17100 nM

Question: And the inhibition in vivo at 30 mg/kg [2]?
Answer: 18.3%

Question: What about the selectivity ratio [3] of the same molecule?
Answer: 0.4

Question: And the IC50 [4]?
Answer: 12500 nM

Question: And the selectivity ratio [5]?
Answer: 0.5

Question: And the CC50 at 24 h [6]?
Answer: 6800 nM

Question: For `CCC(=O)CCCCC[C@@H]1NC(=O)[C@H]2CCCCN2C(=O)[C@H]([C@@H](C)CC)NC(=O)[C@H](Cc2cn(OC)c3ccccc23)NC1=O` [APICIDIN], which IC50 [7] is on record?
Answer: 0.7 nM

Question: For `C[C@@H]1CC[C@H]2[C@@H](C)C(=O)O[C@@H]3O[C@@]4(C)CC[C@@H]1[C@]32OO4` [ARTEMISININ], which IC50 [1] is on record?
Answer: 26 nM

Question: What about the inhibition in vivo at 30 mg/kg [2] of the same molecule?
Answer: 99.7%

Question: And the selectivity ratio [3]?
Answer: > 961

Question: And the IC50 [4]?
Answer: 22 nM

Question: What about the selectivity ratio [5] of the same molecule?
Answer: > 1140

Question: And the CC50 at 24 h [6]?
Answer: > 25000 nM
